Data on one compound can be found in PMC12350162, “Electron flow in hydrogenotrophic methanogens under nickel limitation” (Nature, 2025).

For assay [1], the target named is T1, Elp–Hdr complex, HdrA site (bifurcating FAD) (Methanothermobacter marburgensis, UniProt Q50756).
T1 construct: with H(2):CoB-CoM heterodisulfide,ferredoxin reductase subunit B; H(2):CoB-CoM heterodisulfide,ferredoxin reductase subunit C; F420-dependent electron-donating protein A (truncated formate dehydrogenase alpha subunit FdhA homologue); F420-dependent electron-donating protein B (formate dehydrogenase beta subunit FdhB homologue); F420-dependent electron-donating protein C (MvhD homologue)
Kind of assay: cryo-EM structure. Particulars: electron-bifurcating FAD site of HdrA; co-purified native cofactor. The class given is binding.

Assay [2] has as its target T2, Elp–Hdr complex (ElpABC–HdrABC)2, ElpB site (Methanothermobacter marburgensis, UniProt D9PY03).
T2 construct: gene fdhB; with F420-dependent electron-donating protein A (truncated formate dehydrogenase alpha subunit FdhA homologue); F420-dependent electron-donating protein C (MvhD homologue); H(2):CoB-CoM heterodisulfide,ferredoxin reductase subunit A; H(2):CoB-CoM heterodisulfide,ferredoxin reductase subunit B; H(2):CoB-CoM heterodisulfide,ferredoxin reductase subunit C
Kind of assay: cryo-EM structure. The note with it: FAD-binding site of ElpB; co-purified native cofactor; states 1 and 2.

T1 sequence (Q50756 2-659): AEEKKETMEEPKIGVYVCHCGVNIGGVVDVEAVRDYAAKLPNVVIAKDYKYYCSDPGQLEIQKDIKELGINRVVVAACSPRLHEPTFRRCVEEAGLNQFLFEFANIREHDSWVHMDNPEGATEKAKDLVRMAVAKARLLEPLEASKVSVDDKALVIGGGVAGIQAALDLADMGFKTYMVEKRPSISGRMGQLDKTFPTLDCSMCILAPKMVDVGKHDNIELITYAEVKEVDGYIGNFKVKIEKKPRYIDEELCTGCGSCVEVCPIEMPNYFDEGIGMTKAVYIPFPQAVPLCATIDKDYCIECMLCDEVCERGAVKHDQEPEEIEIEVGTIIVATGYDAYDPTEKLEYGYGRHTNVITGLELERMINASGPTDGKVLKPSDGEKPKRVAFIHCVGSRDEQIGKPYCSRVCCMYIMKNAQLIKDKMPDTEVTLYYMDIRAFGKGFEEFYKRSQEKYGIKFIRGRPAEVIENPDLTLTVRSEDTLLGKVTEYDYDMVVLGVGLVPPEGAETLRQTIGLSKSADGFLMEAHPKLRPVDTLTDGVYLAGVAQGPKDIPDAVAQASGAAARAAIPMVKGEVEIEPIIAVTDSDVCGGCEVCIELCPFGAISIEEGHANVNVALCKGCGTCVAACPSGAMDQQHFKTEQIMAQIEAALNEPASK
T1 sequence (Q50755 whole entry partner, the tested form may be a part): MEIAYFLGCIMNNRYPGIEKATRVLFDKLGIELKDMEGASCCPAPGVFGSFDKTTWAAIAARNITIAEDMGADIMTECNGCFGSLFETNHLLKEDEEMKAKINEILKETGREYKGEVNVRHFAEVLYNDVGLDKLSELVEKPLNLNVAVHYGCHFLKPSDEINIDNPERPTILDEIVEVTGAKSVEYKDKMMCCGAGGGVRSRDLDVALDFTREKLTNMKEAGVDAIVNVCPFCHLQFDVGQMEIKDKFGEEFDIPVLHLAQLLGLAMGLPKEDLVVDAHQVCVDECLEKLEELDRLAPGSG
T1 sequence (Q50754 2-185 partner): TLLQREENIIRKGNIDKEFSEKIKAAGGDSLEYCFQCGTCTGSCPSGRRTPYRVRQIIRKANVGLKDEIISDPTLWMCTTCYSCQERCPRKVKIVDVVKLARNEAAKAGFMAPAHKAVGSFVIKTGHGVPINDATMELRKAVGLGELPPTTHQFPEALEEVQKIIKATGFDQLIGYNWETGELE
T1 sequence (D9PY04 1-342 partner): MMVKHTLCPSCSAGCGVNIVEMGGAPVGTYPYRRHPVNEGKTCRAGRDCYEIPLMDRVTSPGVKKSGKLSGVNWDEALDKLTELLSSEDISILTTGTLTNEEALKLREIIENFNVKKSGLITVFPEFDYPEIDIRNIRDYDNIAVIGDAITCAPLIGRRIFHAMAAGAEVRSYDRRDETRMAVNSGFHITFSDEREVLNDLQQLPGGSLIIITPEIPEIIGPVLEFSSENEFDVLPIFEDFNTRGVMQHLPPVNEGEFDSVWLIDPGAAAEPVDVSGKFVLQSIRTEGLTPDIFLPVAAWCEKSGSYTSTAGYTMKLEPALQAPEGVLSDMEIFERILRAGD
T1 sequence (D9PY03 1-380 partner): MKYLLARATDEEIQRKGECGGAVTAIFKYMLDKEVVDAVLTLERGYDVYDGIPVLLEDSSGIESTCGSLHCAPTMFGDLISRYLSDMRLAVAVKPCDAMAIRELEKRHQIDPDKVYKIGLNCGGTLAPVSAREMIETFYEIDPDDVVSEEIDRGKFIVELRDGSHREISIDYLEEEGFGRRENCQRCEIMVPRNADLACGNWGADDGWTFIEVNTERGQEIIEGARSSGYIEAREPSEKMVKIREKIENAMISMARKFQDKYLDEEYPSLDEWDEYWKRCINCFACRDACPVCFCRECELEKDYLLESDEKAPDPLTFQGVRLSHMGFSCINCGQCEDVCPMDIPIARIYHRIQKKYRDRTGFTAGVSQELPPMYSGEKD
T1 sequence (D9PY02 1-136 partner): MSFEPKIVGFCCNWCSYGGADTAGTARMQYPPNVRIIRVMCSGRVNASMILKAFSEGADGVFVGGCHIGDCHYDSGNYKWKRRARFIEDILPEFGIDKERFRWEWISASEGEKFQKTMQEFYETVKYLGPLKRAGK
T2 sequence (D9PY03 1-380): as the sequence (D9PY03 1-380 partner) above
T2 sequence (D9PY04 1-342 partner): as the sequence (D9PY04 1-342 partner) above
T2 sequence (D9PY02 1-136 partner): as the sequence (D9PY02 1-136 partner) above
T2 sequence (Q50756 2-659 partner): as the sequence (Q50756 2-659) above
T2 sequence (Q50755 whole entry partner, the tested form may be a part): as the sequence (Q50755 whole entry partner, the tested form may be a part) above
T2 sequence (Q50754 2-185 partner): as the sequence (Q50754 2-185 partner) above

As to `Cc1cc2nc3c(=O)[nH]c(=O)nc-3n(C[C@H](O)[C@H](O)[C@H](O)COP(=O)(O)OP(=O)(O)OC[C@H]3O[C@@H](n4cnc5c(N)ncnc54)[C@H](O)[C@@H]3O)c2cc1C` [FAD], the cryo-EM structure entry is “Cofactors including the electron-bifurcating FAD of HdrA” in assay [1]; “the positions of FAD and the four [4Fe–4S] clusters are conserved” in assay [2].
